The source made the active and inactive calls. The calls are words filed in the database; no cut-off is given here.
Tested on: Bacillus subtilis
Test: Tested for antimicrobial activity against Bacillus Subtilis; Not active
Assay type: functional, organism-based

## CC(=O)NC1C(OP(=O)(O)OP(=O)(O)OCC[C@H](C)CCC=C(C)C)OC(CO)C(O)C1O[C@H](C)C(=O)O (some centres not stated)
  Activity: inactive

## CC(C)=CCC[C@@H](C)CCOP(=O)(O)OP(=O)(O)O[C@H]1O[C@@H](CO)[C@@H](O)[C@H](O)[C@@H]1O
  Activity: inactive

— ChEMBL document CHEMBL1133868, “Synthesis of P(1)-Citronellyl-P(2)-alpha-D-pyranosyl pyrophosphates as potential substrates for the E. coli undecaprenyl-pyrophosphoryl-N-acetylglucoseaminyl transferase MurG” (Bioorg Med Chem Lett, 2001)
